Data reported in patent US9365584B2, “Thieno [2,3-B] pyridinedione activators of AMPK and therapeutic uses thereof” (Poxel, priority 2009, dated 2016).

System: AMPK
Assay: AMPK enzyme activity assay (Delfia technology, AMARA peptide substrate)
Assay type: biochemical
Details: compound at 30 μM vs AMP at 200 μM
Protocol: The following biological test allows the determination of the efficacy of compounds of formula (1) onto AMPK protein.
AMPK enzyme activities were assayed by using a Delfia technology. AMPK enzyme activities were carried out in microtiter plates in the presence of a synthetic peptide substrate (AMARAASAAALARRR, the “AMARA” peptide) and activators in serial dilutions. Reactions were initiated by the addition of AMPK. Enzyme activity was assayed by using an anti-phosphoserine antibody to measure the quantity of phosphate incorporated into the AMARAA.
No: Number of the molecule
Activity: Ratio between the % of control (basal activity) of compound of formula (1) at 30 μM and the % of control (basal activity) of AMP (natural substrate) at 200 μM.

SMILES	Activity: Ratio between the % of control (basal activity) of compound of formula (1) at 30 μM and the % of control (basal activity) of AMP (natural substrate) at 200 μM
CC1(c2cccc(S(C)(=O)=O)c2)C(=O)Nc2sc(Cl)c(-c3ccc(F)cc3)c2C1=O (stereo not drawn) [No 64, 2-chloro-3-(4-fluorophenyl)-5-methyl-5-(3-methyl-sulfonylphenyl)-7H-thieno[2,3-b]pyridine-4,6-dione]	C (C≧75%)
COc1ccccc1-c1c(Cl)sc2c1C(=O)C(C)(c1ccc(C)cc1)C(=O)N2 (stereo not drawn) [No 65, 2-chloro-3-(2-methoxyphenyl)-5-methyl-5-(p-tolyl)-7H-thieno[2,3-b]pyridine-4,6-dione]	C (C≧75%)
COc1ccccc1-c1c(Cl)sc2c1C(=O)C(C)(c1cccc(F)c1)C(=O)N2 (stereo not drawn) [No 66, 2-chloro-5-(3-fluorophenyl)-3-(2-methoxyphenyl)-5-methyl-7H-thieno[2,3-b]pyridine-4,6-dione]	C (C≧75%)
COc1ccc(C2(C)C(=O)Nc3sc(Cl)c(-c4ccccc4OC)c3C2=O)cc1 (stereo not drawn) [No 67, 2-chloro-3-(2-methoxyphenyl)-5-(4-methoxyphenyl)-5-methyl-7H-thieno[2,3-b]pyridine-4,6-dione]	C (C≧75%)
COc1cccc(C2(C)C(=O)Nc3sc(Cl)c(-c4ccccc4OC)c3C2=O)c1 (stereo not drawn) [No 68, 2-chloro-3-(2-methoxyphenyl)-5-(3-methoxyphenyl)-5-methyl-7H-thieno[2,3-b]pyridine-4,6-dione]	C (C≧75%)
COc1ccccc1-c1c(Cl)sc2c1C(=O)C(C)(c1ccccc1F)C(=O)N2 (stereo not drawn) [No 69, 2-chloro-5-(2-fluorophenyl)-3-(2-methoxyphenyl)-5-methyl-7H-thieno[2,3-b]pyridine-4,6-dione]	C (C≧75%)
Cc1sc2c(c1-c1ccccc1)C(=O)C(F)(c1ccccc1)C(=O)N2 (stereo not drawn) [No 70, 5-fluoro-2-methyl-3,5-diphenyl-7H-thieno[2,3-b]pyridine-4,6-dione]	C (C≧75%)
O=C1Nc2sc(Cl)c(-c3cccnc3)c2C(=O)C1(F)c1ccccc1 (stereo not drawn) [No 71, 2-chloro-5-fluoro-5-phenyl-3-(3-pyridyl)-7H-thieno[2,3-b]pyridine-4,6-dione]	B (50%≦B<75%)
O=C1Nc2sc(Cl)c(-c3ccc(O)cc3)c2C(=O)C1(F)c1ccccc1 (stereo not drawn) [No 72, 2-chloro-5-fluoro-3-(4-hydroxyphenyl)-5-phenyl-7H-thieno[2,3-b]pyridine-4,6-dione]	C (C≧75%)
O=C1Nc2sc(Cl)c(-c3ccccc3F)c2C(=O)C1(F)c1ccccc1 (stereo not drawn) [No 73, 2-chloro-5-fluoro-3-(2-fluorophenyl)-5-phenyl-7H-thieno[2,3-b]pyridine-4,6-dione]	C (C≧75%)
COc1ccc(-c2c(Cl)sc3c2C(=O)C(F)(c2ccccc2)C(=O)N3)c(F)c1 (stereo not drawn) [No 74, 2-chloro-5-fluoro-3-(2-fluoro-4-methoxy-phenyl)-5-phenyl-7H-thieno[2,3-b]pyridine-4,6-dione]	C (C≧75%)
Cc1ccc(C2(C)C(=O)Nc3sc(Cl)c(-c4ccccc4F)c3C2=O)cc1 (stereo not drawn) [No 75, 2-chloro-3-(2-fluorophenyl)-5-methyl-5-(p-tolyl)-7H-thieno[2,3-b]pyridine-4,6-dione]	A (0%<A<50%)
COc1cccc(C2(C)C(=O)Nc3sc(Cl)c(-c4ccccc4F)c3C2=O)c1 (stereo not drawn) [No 76, 2-chloro-3-(2-fluorophenyl)-5-(3-methoxyphenyl)-5-methyl-7H-thieno[2,3-b]pyridine-4,6-dione]	A (0%<A<50%)
O=C1Nc2sc(Cl)c(-c3ccc(O)c(F)c3)c2C(=O)C1(F)c1ccccc1 (stereo not drawn) [No 77, 2-chloro-5-fluoro-3-(3-fluoro-4-hydroxy-phenyl)-5-phenyl-7H-thieno[2,3-b]pyridine-4,6-dione]	B (50%≦B<75%)
COc1ccccc1C1(F)C(=O)Nc2sc(C)c(-c3ccccc3)c2C1=O (stereo not drawn) [No 78, 5-fluoro-5-(2-methoxyphenyl)-2-methyl-3-phenyl-7H-thieno[2,3-b]pyridine-4,6-dione]	A (0%<A<50%)
Cc1cccc(-c2c(Cl)sc3c2C(=O)C(F)(c2ccccc2)C(=O)N3)c1 (stereo not drawn) [No 79, 2-chloro-5-fluoro-3-(m-tolyl)-5-phenyl-7H-thieno[2,3-b]pyridine-4,6-dione]	C (C≧75%)
Cc1ccc(-c2c(Cl)sc3c2C(=O)C(F)(c2ccccc2)C(=O)N3)cc1 (stereo not drawn) [No 80, 2-chloro-5-fluoro-5-phenyl-3-(p-tolyl)-7H-thieno[2,3-b]pyridine-4,6-dione]	C (C≧75%)
COc1ccc(-c2c(Cl)sc3c2C(=O)C(F)(c2ccccc2)C(=O)N3)cc1 (stereo not drawn) [No 81, 2-chloro-5-fluoro-3-(4-methoxyphenyl)-5-phenyl-7H-thieno[2,3-b]pyridine-4,6-dione]	B (50%≦B<75%)
CS(=O)(=O)c1cccc(C2(F)C(=O)Nc3sc(Cl)c(-c4ccccc4)c3C2=O)c1 (stereo not drawn) [No 82, 2-chloro-5-fluoro-5-(3-methylsulfonylphenyl)-3-phenyl-7H-thieno[2,3-b]pyridine-4,6-dione]	A (0%<A<50%)
Cc1cccc(C2(C)C(=O)Nc3sc(Cl)c(-c4ccc(F)cc4)c3C2=O)c1 (stereo not drawn) [No 83, 2-chloro-3-(4-fluorophenyl)-5-methyl-5-(m-tolyl)-7H-thieno[2,3-b]pyridine-4,6-dione]	A (0%<A<50%)
COc1ccc(C2(C)C(=O)Nc3sc(Cl)c(-c4ccccc4F)c3C2=O)cc1 (stereo not drawn) [No 84, 2-chloro-3-(2-fluorophenyl)-5-(4-methoxyphenyl)-5-methyl-7H-thieno[2,3-b]pyridine-4,6-dione]	B (50%≦B<75%)
COc1ccc(-c2c(Cl)sc3c2C(=O)C(C)(c2cccc(F)c2)C(=O)N3)cc1 (stereo not drawn) [No 85, 2-chloro-5-(3-fluorophenyl)-3-(4-methoxyphenyl)-5-methyl-7H-thieno[2,3-b]pyridine-4,6-dione]	A (0%<A<50%)
COc1ccc(-c2c(Cl)sc3c2C(=O)C(C)(c2ccc(OC)cc2)C(=O)N3)cc1 (stereo not drawn) [No 86, 2-chloro-3,5-bis(4-methoxyphenyl)-5-methyl-7H-thieno[2,3-b]pyridine-4,6-dione]	A (0%<A<50%)
COc1ccc(-c2c(Cl)sc3c2C(=O)C(C)(c2cccc(C)c2)C(=O)N3)cc1 (stereo not drawn) [No 87, 2-chloro-3-(4-methoxyphenyl)-5-methyl-5-(m-tolyl)-7H-thieno[2,3-b]pyridine-4,6-dione]	A (0%<A<50%)
COc1ccc(-c2c(Cl)sc3c2C(=O)C(C)(c2cccc(OC)c2)C(=O)N3)cc1 (stereo not drawn) [No 88, 2-chloro-5-(3-methoxyphenyl)-3-(4-methoxyphenyl)-5-methyl-7H-thieno[2,3-b]pyridine-4,6-dione]	A (0%<A<50%)
CC1(c2ccccc2F)C(=O)Nc2sc(Cl)c(-c3ccccc3F)c2C1=O (stereo not drawn) [No 89, 2-chloro-3,5-bis(2-fluorophenyl)-5-methyl-7H-thieno[2,3-b]pyridine-4,6-dione]	A (0%<A<50%)
CC1(c2cccc(F)c2)C(=O)Nc2sc(Cl)c(-c3ccccc3F)c2C1=O (stereo not drawn) [No 90, 2-chloro-3-(2-fluorophenyl)-5-(3-fluorophenyl)-5-methyl-7H-thieno[2,3-b]pyridine-4,6-dione]	A (0%<A<50%)
CC1(c2ccc(F)cc2)C(=O)Nc2sc(Cl)c(-c3ccccc3F)c2C1=O (stereo not drawn) [No 91, 2-chloro-3-(2-fluorophenyl)-5-(4-fluorophenyl)-5-methyl-7H-thieno[2,3-b]pyridine-4,6-dione]	A (0%<A<50%)
Cc1cccc(C2(C)C(=O)Nc3sc(Cl)c(-c4ccccc4F)c3C2=O)c1 (stereo not drawn) [No 92, 2-chloro-3-(2-fluorophenyl)-5-methyl-5-(m-tolyl)-7H-thieno[2,3-b]pyridine-4,6-dione]	A (0%<A<50%)
O=C1Nc2sc(Cl)c(-c3ccncc3)c2C(=O)C1(F)c1ccccc1 (stereo not drawn) [No 93, 2-chloro-5-fluoro-5-phenyl-3-(4-pyridyl)-7H-thieno[2,3-b]pyridine-4,6-dione]	A (0%<A<50%)
